Data as given in US9708314B2, “Heterocyclic amide compound” (NISSAN CHEMICAL INDUSTRIES, LTD., priority 2013, dated 2017).

Experiments:
Type in all cases: in vivo
[1] = test system: Echinochloa oryzacola Vasing.; assay: Test Example 2: herbicidal activity, application during weed generation in submerged conditions; details: Eighteenth Table
Procedure, shortened: (§1)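 Post-emergence application under submerged conditions: water-diluted emulsion dosed onto the water surface (g/ha) when weeds reach one- to two-leaf stage. Soil flooded to 4 cm; greenhouse 25–30 °C. Herbicidal ratio graded in six classes, 0 (≤5%) to 5 (≥90%), at three weeks.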

Monochoria vaginalis = assay: as above; details: Eighteenth Table
Procedure, shortened: as §1

Scirpus juncoides = assay: as above; details: Eighteenth Table
Procedure, shortened: as §1

[2] = test system: directly sowed Oryza sativa; assay: Test Example 3: effect on crop by application to foliage (Wagner pot, water depth 0.1-0.5 cm); details: Nineteenth Table, application to foliage
Procedure, shortened: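 Post-emergence foliar application at a stated g/ha rate to plants grown 14 days from seed in alluvial soil, greenhouse 25–30 °C. Visual score after 3 weeks: 0 (≤5% effect) through 5 (≥90%).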

[3] = test system: Beta vulgaris ssp. vulgaris; assay: Test Example 4: effect on crop by application to foliage (diluvial soil, plastic box); details: for f: Application herbicide amount 320 g/ha, effect on crop
Procedure, shortened: (§2)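 Emulsion-formulated compound, diluted to a predetermined g/ha dose, applied by small sprayer to leaves and stems of 14-day-old seedlings grown in sterilized diluvial soil. Effect rated on 0–5 herbicidal-ratio scale three weeks on.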

Brassica campestris L. = assay: as above; details: for g: Application herbicide amount 320 g/ha, effect on crop
Procedure, shortened: as §2

Glycine max = assay: as above; details: for c: Application herbicide amount 320 g/ha, effect on crop
Procedure, shortened: as §2

Triticum aestivum = assay: as above; details: for e: Application herbicide amount 320 g/ha, effect on crop
Procedure, shortened: as §2

[4] = test system: directly sowed Oryza sativa; assay: as above; details: for d: Application herbicide amount 320 g/ha, effect on crop
Procedure, shortened: as §2

[5] = application herbicide amount 320 g/ha
[6] = application herbicide amount 192 g/ha

Structure (SMILES)	A (Echinochloa oryzicola Vasing.) herbicidal ratio grade [1, 5]	C (Monochoria vaginalis) herbicidal ratio grade (Monochoria vaginalis; [5])	B (Scirpus juncoides) herbicidal ratio grade (Scirpus juncoides; [5])	b (effect on crop grade) [2, 5]	f [3]	g (Brassica campestris L.)	c (Glycine max)	e (Triticum aestivum)	d [4]	A (Echinochloa oryzicola Vasing.) herbicidal ratio grade [1, 6]	C (Monochoria vaginalis) herbicidal ratio grade (Monochoria vaginalis; [6])	B (Scirpus juncoides) herbicidal ratio grade (Scirpus juncoides; [6])	b (effect on crop grade) [2, 6]	f (Beta vulgaris ssp. vulgaris) effect on crop grade ([3]; foliage application, 192 g/ha)	g (Brassica campestris L.) effect on crop grade (Brassica campestris L.; foliage application, 192 g/ha)	c (Glycine max) effect on crop grade (Glycine max; foliage application, 192 g/ha)	e (Triticum aestivum) effect on crop grade (Triticum aestivum; foliage application, 192 g/ha)	d (directly sowed Oryza sativa) effect on crop grade ([4]; foliage application, 192 g/ha)
Cc1nnc(NC(=O)c2ccc(C(F)(F)F)n3c(N(C)c4ccccc4)nnc23)o1 [1-086]	4 (Herbicidal ratio of 70% or more and less than 90%)	4 (Herbicidal ratio of 70% or more and less than 90%)	4 (Herbicidal ratio of 70% or more and less than 90%)	0 (Herbicidal ratio of 5% or less (almost no effect))	5 (Herbicidal ratio of 90% or more (almost completely withered))	4 (Herbicidal ratio of 70% or more and less than 90%)	1 (Herbicidal ratio of 5% or more and less than 20%)	0 (Herbicidal ratio of 5% or less (almost no effect))	1 (Herbicidal ratio of 5% or more and less than 20%)									
Cc1nnc(NC(=O)c2ccc(C(F)(F)F)n3c(NC(C)C)nnc23)o1 [1-090]	2 (Herbicidal ratio of 20% or more and less than 40%)	3 (Herbicidal ratio of 40% or more and less than 70%)	1 (Herbicidal ratio of 5% or more and less than 20%)	0 (Herbicidal ratio of 5% or less (almost no effect))	5 (Herbicidal ratio of 90% or more (almost completely withered))	4 (Herbicidal ratio of 70% or more and less than 90%)	1 (Herbicidal ratio of 5% or more and less than 20%)	0 (Herbicidal ratio of 5% or less (almost no effect))	4 (Herbicidal ratio of 70% or more and less than 90%)									
CC(C)Sc1nnc2c(C(=O)Nc3nnco3)ccc(C(F)(F)F)n12 [1-091]	5 (Herbicidal ratio of 90% or more (almost completely withered))	5 (Herbicidal ratio of 90% or more (almost completely withered))	5 (Herbicidal ratio of 90% or more (almost completely withered))	0 (Herbicidal ratio of 5% or less (almost no effect))	5 (Herbicidal ratio of 90% or more (almost completely withered))	5 (Herbicidal ratio of 90% or more (almost completely withered))	2 (Herbicidal ratio of 20% or more and less than 40%)	3 (Herbicidal ratio of 40% or more and less than 70%)	4 (Herbicidal ratio of 70% or more and less than 90%)									
CCC[S+]([O-])c1nnc2c(C(=O)Nc3nnc(C)o3)ccc(C(F)(F)F)n12 (stereo not drawn) [1-092]	4 (Herbicidal ratio of 70% or more and less than 90%)	3 (Herbicidal ratio of 40% or more and less than 70%)	4 (Herbicidal ratio of 70% or more and less than 90%)	4 (Herbicidal ratio of 70% or more and less than 90%)	5 (Herbicidal ratio of 90% or more (almost completely withered))	3 (Herbicidal ratio of 40% or more and less than 70%)	1 (Herbicidal ratio of 5% or more and less than 20%)	0 (Herbicidal ratio of 5% or less (almost no effect))	4 (Herbicidal ratio of 70% or more and less than 90%)									
Cc1nnc(NC(=O)c2ccc(C(F)(F)F)n3c(SCC(C)C)nnc23)o1 [1-093]	3 (Herbicidal ratio of 40% or more and less than 70%)	3 (Herbicidal ratio of 40% or more and less than 70%)	3 (Herbicidal ratio of 40% or more and less than 70%)	1 (Herbicidal ratio of 5% or more and less than 20%)	5 (Herbicidal ratio of 90% or more (almost completely withered))	3 (Herbicidal ratio of 40% or more and less than 70%)	4 (Herbicidal ratio of 70% or more and less than 90%)	0 (Herbicidal ratio of 5% or less (almost no effect))	3 (Herbicidal ratio of 40% or more and less than 70%)									
CCC(C)Sc1nnc2c(C(=O)Nc3nnc(C)o3)ccc(C(F)(F)F)n12 (stereo not drawn) [1-094]	4 (Herbicidal ratio of 70% or more and less than 90%)	3 (Herbicidal ratio of 40% or more and less than 70%)	3 (Herbicidal ratio of 40% or more and less than 70%)	1 (Herbicidal ratio of 5% or more and less than 20%)	5 (Herbicidal ratio of 90% or more (almost completely withered))	3 (Herbicidal ratio of 40% or more and less than 70%)	4 (Herbicidal ratio of 70% or more and less than 90%)	1 (Herbicidal ratio of 5% or more and less than 20%)	3 (Herbicidal ratio of 40% or more and less than 70%)									
Cc1nnc(NC(=O)c2ccc(C(F)(F)F)n3c(SC(C)(C)C)nnc23)o1 [1-095]	4 (Herbicidal ratio of 70% or more and less than 90%)	4 (Herbicidal ratio of 70% or more and less than 90%)	5 (Herbicidal ratio of 90% or more (almost completely withered))	1 (Herbicidal ratio of 5% or more and less than 20%)	5 (Herbicidal ratio of 90% or more (almost completely withered))	3 (Herbicidal ratio of 40% or more and less than 70%)	2 (Herbicidal ratio of 20% or more and less than 40%)	1 (Herbicidal ratio of 5% or more and less than 20%)	3 (Herbicidal ratio of 40% or more and less than 70%)									
Cc1nnc(NC(=O)c2ccc(C(F)(F)F)n3c(N4CCOCC4)nnc23)o1 [1-096]	4 (Herbicidal ratio of 70% or more and less than 90%)	4 (Herbicidal ratio of 70% or more and less than 90%)	3 (Herbicidal ratio of 40% or more and less than 70%)	4 (Herbicidal ratio of 70% or more and less than 90%)	5 (Herbicidal ratio of 90% or more (almost completely withered))	5 (Herbicidal ratio of 90% or more (almost completely withered))	4 (Herbicidal ratio of 70% or more and less than 90%)	1 (Herbicidal ratio of 5% or more and less than 20%)	4 (Herbicidal ratio of 70% or more and less than 90%)									
CC(C)c1nnc2c(C(=O)Nc3nnc(C(F)(F)F)o3)ccc(C(F)(F)F)n12 [1-100]	4 (Herbicidal ratio of 70% or more and less than 90%)	4 (Herbicidal ratio of 70% or more and less than 90%)	3 (Herbicidal ratio of 40% or more and less than 70%)	0 (Herbicidal ratio of 5% or less (almost no effect))	3 (Herbicidal ratio of 40% or more and less than 70%)	0 (Herbicidal ratio of 5% or less (almost no effect))	0 (Herbicidal ratio of 5% or less (almost no effect))	0 (Herbicidal ratio of 5% or less (almost no effect))	1 (Herbicidal ratio of 5% or more and less than 20%)									
COc1cccc(Nc2nnc3c(C(=O)Nc4nnc(C)o4)ccc(C(F)(F)F)n23)n1 [1-102]	1 (Herbicidal ratio of 5% or more and less than 20%)	1 (Herbicidal ratio of 5% or more and less than 20%)	1 (Herbicidal ratio of 5% or more and less than 20%)	2 (Herbicidal ratio of 20% or more and less than 40%)	4 (Herbicidal ratio of 70% or more and less than 90%)	2 (Herbicidal ratio of 20% or more and less than 40%)	0 (Herbicidal ratio of 5% or less (almost no effect))	0 (Herbicidal ratio of 5% or less (almost no effect))	1 (Herbicidal ratio of 5% or more and less than 20%)									
Cc1cc(C(=O)Nc2nnnn2C)c2nnc(C(C)C)n2c1C(F)(F)F [2-050]										1 (Herbicidal ratio of 5% or more and less than 20%)	2 (Herbicidal ratio of 20% or more and less than 40%)	0 (Herbicidal ratio of 5% or less (almost no effect))	0 (Herbicidal ratio of 5% or less (almost no effect))	3 (Herbicidal ratio of 40% or more and less than 70%)	0 (Herbicidal ratio of 5% or less (almost no effect))	0 (Herbicidal ratio of 5% or less (almost no effect))	0 (Herbicidal ratio of 5% or less (almost no effect))	3 (Herbicidal ratio of 40% or more and less than 70%)
